Measurements: patent US10407445B2, “Hepatitis C virus inhibitors” (ENANTA PHARMACEUTICALS, INC., priority 2013, dated 2019)

Legend:
Format in all cases: cell-based
[1] = tested on: HCV GT 1a replicon; test: HCV replicon assay, stable GT 1a replicon (Renilla luciferase); conditions: Hepatitis C virus, GT1A; HCV GT 1a replicon, 72 h; read-out: EC50 1a
Protocol: (§1) The activity of compounds was determined against HCV replicons representing genotypes (GT) 1a, 1b, 2a, and 3a. To generate stable Huh-7.5-based cell lines, HCV replicons were engineered to express the Renilla luciferase reporter (hRluc) fused to the neomycin phosphotransferase (Neo) gene. GT2a and GT3a HCV replicons were based on the JFH-1 subgenomic replicon (Kato et al. 2003 Gastroenterology, 125:1808-1817), in which the NS5A gene was replaced with that of strains J6 and S52 (GT2a and G3a, respectively). The activity of compounds against GT1a replicons encoding NS5A mutations (M28T, Q30R, L31M, Y93C, and Y93H) was also determined in a transient replication assay. The parental GT1a and GT2a replicons (pH/SG-Neo(L+I) and pSG-Neo-JFH1, respectively) were licensed from Apath LLC (Saint Louis, Mo.). The parental GT 1b replicon (pFKi389lucubineo_3_3′_ET) was licensed from ReBLikon GmbH (Germany). HCV replicons were constructed by standard molecular biology techniques described below. All replicon constructs were verified by restriction enzyme digestion and DNA sequencing.
pH/SG-Neo(L+I) was modified to add the firefly luciferase reporter gene and additional adaptive mutations by replacing the pH/SG-Neo(L+I) NS3-NS5A coding region with the corresponding sequence of pH77-S, creating pH/SG-lucubineo-H77S as described (Borawski J et al. 2009, J Virol 83: 10058-10074). Subsequently, the firefly luciferase-Neo cassette was replaced with the hRluc-Neo cassette. To create a unique cloning site, the NotI restriction site in NS5B was removed using QuickChange II XL Site-Directed Mutagenesis Kit (Agilent) and the following primers: NotI KO Fwd 5′-CTCAAACTCACTCCAATAGCTGCCGCTGGCCGGCTGGAC-3′(G→T mutation removing NotI site underlined) (SEQ. ID No. 1) and NotI KO Rev 5′-GTCCAGCGGGCCAGCGGCAGCTATTGGAGTGAGTTTGAG-3′(C→A mutation removing NotI site underlined) (SEQ. ID No. 2). The resulting vector, pH/SG-lucubineo-H775-NotIKO, was sequenced to confirm the NS5B gene. The hRluc-Neo cassette was PCR amplified from pF9 cytomegalovirus (CMV) hRluc-Neo Flexi(R) (Promega) using Accuprime Super Mix II (Invitrogen) and the following primers, which introduce restriction sites: […]
The amplification product was subcloned into pCR2.1-TOPO (Invitrogen). The resulting plasmid was digested with AscI and NotI, and the excised hRluc-Neo fragment was ligated using the Promega Rapid Ligation Kit (Promega) into pH/SG-lucubineo-H775-NotIKO digested with the same enzymes.
Stable HCV replicon cell lines were grown in complete media (Dulbecco's modified Eagle medium [DMEM], 2 mM L-glutamine, 0.1 mM essential amino acids, 1 mM sodium pyruvate, 10% heat inactivated fetal bovine serum) with the addition 500 μg/ml […] (G418). Huh7-lunet cells were maintained in the same medium without the addition of G418. Cells were routinely passaged at a dilution of 1:4 two times a week. The assay medium for both luciferase reporter HCV replicon and cytotoxicity assays used phenol red-free DMEM and lacked G418. For each stable replicon assay, a sixteen point half-log dilution series of compound was stamped (0.5 ul compound per well) into three replica 384-well plates, to which cells were added directly (4000 cells/well). For the transient replication assay, Huh7-lunet cells in ice-cold phosphate buffered saline (PBS) were electroporated (BioRad electroporator; 950 uF, 270V) with 10 ug purified in vitro transcribed HCV replicon RNA, followed by resuspension in complete media and plating (8000 cells/well) into compound stamped 384-well plates. Luciferase activity of compound-treated cells was measured relative to DMSO-treated cells after 72 h incubation using RENILLA-GLO™ Luciferase Assay (Promega). Cytotoxicity (CC50) in the GT1b replicon cell line was analyzed using CELL TITER-GLO™ (Promega). […]

[2] = tested on: HCV GT 1b replicon; test: HCV replicon assay, stable GT 1b replicon (Renilla luciferase); conditions: Hepatitis C virus, GT1B, 72 h
Protocol: as §1
The hRluc-Neo cassette was PCR amplified from pF9 cytomegalovirus (CMV) hRluc-Neo Flexi(R) (Promega) using Accuprime Super Mix II (Invitrogen) and the following primers, which introduce restriction sites: […]
The amplification product was subcloned into pCR2.1-TOPO (Invitrogen). The resulting plasmid was digested with AscI and NotI, and the excised hRluc-Neo fragment was ligated using the Roche Quick Ligation Kit (Roche) into pFKi389lucubineo_3_3′_ET digested with the same enzymes.
Stable HCV replicon cell lines were grown in complete media (Dulbecco's modified Eagle medium [DMEM], 2 mM L-glutamine, 0.1 mM essential amino acids, 1 mM sodium pyruvate, 10% heat inactivated fetal bovine serum) with the addition 500 μg/ml […] (G418). Huh7-lunet cells were maintained in the same medium without the addition of G418. Cells were routinely passaged at a dilution of 1:4 two times a week. The assay medium for both luciferase reporter HCV replicon and cytotoxicity assays used phenol red-free DMEM and lacked G418. For each stable replicon assay, a sixteen point half-log dilution series of compound was stamped (0.5 ul compound per well) into three replica 384-well plates, to which cells were added directly (4000 cells/well). For the transient replication assay, Huh7-lunet cells in ice-cold phosphate buffered saline (PBS) were electroporated (BioRad electroporator; 950 uF, 270V) with 10 ug purified in vitro transcribed HCV replicon RNA, followed by resuspension in complete media and plating (8000 cells/well) into compound stamped 384-well plates. Luciferase activity of compound-treated cells was measured relative to DMSO-treated cells after 72 h incubation using RENILLA-GLO™ Luciferase Assay (Promega). Cytotoxicity (CC50) in the GT1b replicon cell line was analyzed using CELL TITER-GLO™ (Promega).
The compounds of the present invention can be effective against the HCV 1b genotype. It should also be understood that the compounds of the present invention can inhibit multiple genotypes of HCV. In one embodiment compound of the present invention are active against the 1a, 1b, 2a, 2b, 3a, 4a, and 5a genotypes. In another embodiment compound of the present invention are active against the HCV resistant mutants. […] EC50s are in pM against HCV GT 1a and GT 1b; and nM against GT 2a-J6, GT 3a and GT1a resistant variants (M28T, Q30R, L31V, Y93C and Y93H).

[3] = tested on: GT1a replicon encoding NS5A mutation M28T; test: Transient replication assay, GT1a replicon with NS5A mutation M28T; conditions: Hepatitis C virus, read-out: EC50 1a M28T
[4] = tested on: GT1a replicon encoding NS5A mutation Q30R; test: Transient replication assay, GT1a replicon with NS5A mutation Q30R; conditions: Hepatitis C virus, read-out: EC50 1a Q30R
[5] = tested on: GT1a replicon encoding NS5A mutation L31V; test: Transient replication assay, GT1a replicon with NS5A mutation L31V; conditions: Hepatitis C virus, read-out: EC50 1a L31V
[6] = tested on: GT1a replicon encoding NS5A mutation Y93C; test: Transient replication assay, GT1a replicon with NS5A mutation Y93C; conditions: Hepatitis C virus, read-out: EC50 1a Y93C
[7] = tested on: GT1a replicon encoding NS5A mutation Y93H; test: Transient replication assay, GT1a replicon with NS5A mutation Y93H; conditions: Hepatitis C virus, read-out: EC50 1a Y93H

## COC(=O)N[C@H](C(=O)N1[C@H](c2nc3ccc4cc(-c5ccc(-c6cnc([C@@H]7C[C@@]8(CCCOC8)CN7C(=O)[C@@H](NC(=O)OC)C7C[C@@H](C)O[C@H](C)C7)[nH]6)cc5)ccc4c3[nH]2)C[C@@H]2CCC[C@@H]21)C(C)C (some centres unmarked) [Compound 43]
[1]
  EC50: 0.015 nM
[2]
  EC50: 0.023 nM
[3]
  EC50: 0.04 nM
[4]
  EC50: 0.03 nM
[5]
  EC50: 0.06 nM
[6]
  EC50: 0.04 nM
[7]
  EC50: 2 nM

## COC(=O)N[C@H](C(=O)N1[C@H](c2ncc(-c3ccc(-c4ccc(-c5cnc([C@@H]6C[C@@]7(CCCOC7)CN6C(=O)[C@@H](NC(=O)OC)C6C[C@@H](C)O[C@H](C)C6)[nH]5)cc4)cc3)[nH]2)C[C@@H]2CCC[C@@H]21)C(C)C (some centres unmarked) [Compound 45]
[1]
  EC50: 0.023 nM
[2]
  EC50: 0.028 nM
[3]
  EC50: 0.04 nM
[4]
  EC50: 0.03 nM
[5]
  EC50: 0.06 nM
[6]
  EC50: 0.3 nM
[7]
  EC50: 8 nM
